Assay results as given in US11684557B2, “Preservation compositions” (Conopco, Inc., priority 2018, dated 2023).

How the values were obtained:
[1] = test system: Gram negative non-fermenting bacteria; experiment: Liquid broth assays (MIC and checkerboard), modified ISO 20776-1:2006; format: cell-based; details: individual chemical; tryptic soy broth, 30° C., 24 hours, OD600; MIC = <25% growth vs positive growth control
Excerpt: (§1) The differing behaviours of inhibitory antimicrobials in isolation and mixtures have been widely explored using the concept of the Fractional Concentration and Fractional Inhibitory Concentration (FIC). See for instance JRW Lambert and R Lambert, J. Appl. Microbiol 95, 734 (2003); T. Jadavji, C G Prober and R Cheung, Antimicrobial Agents and Chemotherapy 26, 91 (1984), and WO 2004/006876. These parameters can be defined as follows: FC(component a)=Concentration of component a tested in the mixture/MIC(component a tested as a single active) FIC(component a)=MIC(component a tested in the mixture)/MIC(component a tested as a single active)
(§2) These relationships can be expressed mathematically by summing the fractional MIC values for all the components present in the mixture to give the “fractional inhibitory index”: ΣFIC=FIC(component 1)+FIC(component 2)
(§3) Liquid broth assays (MIC and checkerboard) were conducted to identify the minimum concentration(s) of individual and binary combinations of preservation chemicals. A modified methodology to ISO 20776-1:2006 was utilised for the screening as follows. Stock solutions of preservation chemicals and tryptic soy broth were inoculated with 1-5×10^6 microorganisms and incubated at 30° C. for 24 hours, after which optical densities at OD600 nm were measured. Microorganisms used for assessed included Gram negative non-fermenting bacteria: Pseudomonas aeruginosa, Pseudomonas putida & Burkholderia cepacia and Gram negative fermenting bacteria: Enterobacter gergoviae & Klebsiella species. […] Preservation chemicals were screened at a concentration range of 0.0156-2%.

[2] = test system: Gram negative fermenting bacteria; experiment: as above; format: cell-based, Enterobacter gergoviae & Klebsiella species; details: individual chemical; tryptic soy broth, 30° C., 24 hours, OD600; MIC = <25% growth vs positive growth control
Excerpt: as §1, §2, §3

SMILES	MIC Gram negative non-fermenting bacteria [1]	MIC Gram negative fermenting bacteria [2]
OCc1ccccc1 [Benzyl alcohol, reference compound]	0.125 wt %	0.5 wt %
C=C(CC(=O)O)C(=O)O [Itaconic acid]	0.5 wt %	0.5 wt %
O=C([O-])c1ccccc1.[Na+] [Sodium benzoate]	1 wt %	1 wt %
